Here are results for one molecule from PMC9911596 (Nature Communications, 2023).

Molecules are shown by their SMILES.

This experiment concerns the target T1, Vtc1/Vtc3/Vtc4 complex (VTC complex) (Saccharomyces cerevisiae, UniProt P47075+Q02725, P47075:K129A/P47075:K132A/P47075:K136A).
T1 construct: full-length subunits co-expressed in Expi293F; Vtc1 C-terminal HA, Vtc3 N-terminal 3xFlag, Vtc4 C-terminal 2xStrep; detergent-purified; 3:1:1 pentamer; with Vacuolar transporter chaperone complex subunit 1
T1 sequence (P47075 1-721 K129A/K132A/K136A): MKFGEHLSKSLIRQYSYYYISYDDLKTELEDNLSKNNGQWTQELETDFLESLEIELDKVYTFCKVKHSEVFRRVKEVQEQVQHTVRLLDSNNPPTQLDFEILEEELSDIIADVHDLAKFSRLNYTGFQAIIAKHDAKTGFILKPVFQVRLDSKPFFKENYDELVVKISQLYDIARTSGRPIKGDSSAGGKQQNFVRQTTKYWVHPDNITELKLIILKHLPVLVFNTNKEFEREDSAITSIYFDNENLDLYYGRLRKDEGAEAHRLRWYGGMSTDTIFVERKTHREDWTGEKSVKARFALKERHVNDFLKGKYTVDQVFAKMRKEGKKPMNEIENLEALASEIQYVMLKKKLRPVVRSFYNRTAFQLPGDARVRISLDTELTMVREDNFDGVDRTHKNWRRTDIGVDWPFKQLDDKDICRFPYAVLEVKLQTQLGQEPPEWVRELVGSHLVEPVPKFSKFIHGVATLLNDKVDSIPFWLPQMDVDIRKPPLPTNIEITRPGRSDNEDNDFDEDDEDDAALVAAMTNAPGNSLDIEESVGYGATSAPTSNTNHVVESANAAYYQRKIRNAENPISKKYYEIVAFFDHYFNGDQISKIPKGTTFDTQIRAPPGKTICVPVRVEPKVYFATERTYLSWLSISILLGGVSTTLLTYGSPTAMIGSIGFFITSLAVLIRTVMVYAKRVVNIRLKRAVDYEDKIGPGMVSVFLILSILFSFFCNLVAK
T1 sequence (Q02725 1-835): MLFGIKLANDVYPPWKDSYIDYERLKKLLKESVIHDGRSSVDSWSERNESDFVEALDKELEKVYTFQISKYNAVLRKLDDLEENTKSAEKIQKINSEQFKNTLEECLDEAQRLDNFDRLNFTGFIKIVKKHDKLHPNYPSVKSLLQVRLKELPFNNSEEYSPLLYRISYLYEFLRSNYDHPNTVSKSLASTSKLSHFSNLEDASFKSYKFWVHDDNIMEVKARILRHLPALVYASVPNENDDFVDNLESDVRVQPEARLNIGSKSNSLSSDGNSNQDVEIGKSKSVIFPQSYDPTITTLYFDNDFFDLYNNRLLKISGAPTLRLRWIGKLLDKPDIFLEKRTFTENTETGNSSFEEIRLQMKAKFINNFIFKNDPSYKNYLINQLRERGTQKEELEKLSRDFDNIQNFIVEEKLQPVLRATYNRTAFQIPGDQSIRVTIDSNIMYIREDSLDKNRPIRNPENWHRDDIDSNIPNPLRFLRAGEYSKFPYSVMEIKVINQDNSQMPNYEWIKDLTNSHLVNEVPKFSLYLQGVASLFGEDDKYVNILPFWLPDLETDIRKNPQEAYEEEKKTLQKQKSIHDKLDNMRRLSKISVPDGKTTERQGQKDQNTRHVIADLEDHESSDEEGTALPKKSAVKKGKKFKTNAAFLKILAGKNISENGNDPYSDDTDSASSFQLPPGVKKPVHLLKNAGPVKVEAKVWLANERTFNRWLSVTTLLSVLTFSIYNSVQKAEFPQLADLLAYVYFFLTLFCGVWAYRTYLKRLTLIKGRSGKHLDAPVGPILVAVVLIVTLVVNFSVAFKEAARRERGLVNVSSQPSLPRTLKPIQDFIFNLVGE
T1 sequence (P40046 2-129 partner): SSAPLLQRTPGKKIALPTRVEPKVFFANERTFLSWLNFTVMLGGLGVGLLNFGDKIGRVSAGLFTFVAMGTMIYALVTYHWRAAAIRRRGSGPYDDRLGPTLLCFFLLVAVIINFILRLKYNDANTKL
In words: polyP synthesis, TBE-PAGE. The settings on record: activator; 15 mM ATP, 10 mM MgCl2, 1 mM MnCl2, 0.5 mM pyrophosphate, 27 °C, 4 h; SPX KSC mutant. Format: biochemical.

As to `O=P(O)(O)O[C@H]1[C@H](OP(=O)(O)O)[C@@H](OP(=O)(O)O)[C@H](OP(=O)(O)O)[C@@H](OP(=O)(O)O)[C@H]1OP(=O)(O)O` [InsP6], the “polyP synthesis, TBE-PAGE” value was “both reduced InsP6-stimulated polyP synthesis”.
